Tests used:
[1] = biological target: T1, E3 ubiquitin-protein ligase CBL-B (Homo sapiens, UniProt Q13191); experiment: Inhibition of N-terminal Avi-tagged human CBL-B (36 to 427 residues) incubated with 30 nM Src kinase for 1.5 hrs followed by incubation with fluorescently labeled UbcH5B-Ub for 1 hr and measured by TR-FRET assay
[2] = biological target: T1, E3 ubiquitin-protein ligase CBL-B; experiment: Binding affinity towards N-terminal biotinylated Avi-tagged human CBL-B (36 to 427 residues) measured by surface plasmon resonance assay
[3] = Induction of anti-CD3/CD28 antibodies-stimulated human T cell activation at 0.3 uM assessed fold increase in IL-2 secretion measured by ELISA assay; assay type: functional, T cell line
[4] = Induction of anti-CD3 antibodies-stimulated human T cell activation at 1 uM assessed fold increase in CD25 expression measured by ELISA assay; assay type: functional, T cell line; also: reference of the scale not given here
[5] = Induction of anti-CD3/CD28 antibodies-stimulated human T cell activation at 4 uM assessed fold increase in IL-2 secretion measured by ELISA assay; assay type: functional, T cell line
[6] = Induction of anti-CD3 antibodies-stimulated human T cell activation at 8 uM assessed fold increase in CD25 expression measured by ELISA assay; assay type: functional, T cell line; also: reference of the scale not given here
[7] = Induction of anti-CD3/CD28 antibodies-stimulated human T cell activation at 1 uM assessed fold increase in IL-2 secretion measured by ELISA assay; assay type: functional, T cell line
[8] = Induction of anti-CD3/CD28 antibodies-stimulated human T cell activation at 1 uM assessed fold increase in CD25 expression measured by ELISA assay; assay type: functional, T cell line
[9] = Induction of anti-CD3 antibodies-stimulated human T cell activation at 8 uM assessed fold increase in IL-2 secretion measured by ELISA assay; assay type: functional, T cell line; also: reference of the scale not given here
[10] = Induction of anti-CD3 antibodies-stimulated human T cell activation at 1 uM assessed fold increase in IL-2 secretion measured by ELISA assay; assay type: functional, T cell line; also: reference of the scale not given here
[11] = Induction of anti-CD3/CD28 antibodies-stimulated human T cell activation at 4 uM assessed fold increase in CD25 expression measured by ELISA assay; assay type: functional, T cell line
[12] = biological target: T1, E3 ubiquitin-protein ligase CBL-B; experiment: Inhibition of N-terminal Avi-tagged human CBL-B (36 to 427 residues) incubated with 60 nM Src kinase for 1.5 hrs followed by incubation with fluorescently labeled UbcH5B-Ub for 1 hr and measured by TR-FRET assay; assay type: single protein
[13] = Induction of anti-CD3/CD28 antibodies-stimulated human T cell activation at 0.3 uM assessed fold increase in CD25 expression measured by ELISA assay; assay type: functional, T cell line
[14] = Induction of anti-CD3 antibodies-stimulated human CD4+ T cell activation in immunocompetent mouse assessed fold increase in CD25 expression at 135 mg/kg, po administered twice a day; assay type: functional; also: reference of the scale not given here
[15] = Induction of anti-CD3 antibodies-stimulated human CD8+ T cell activation in immunocompetent mouse assessed fold increase in CD25 expression at 90 mg/kg, po administered twice a day; assay type: functional; also: reference of the scale not given here
[16] = Induction of anti-CD3 antibodies-stimulated human CD8+ T cell activation in immunocompetent mouse assessed fold increase in CD25 expression at 135 mg/kg, po administered twice a day; assay type: functional; also: reference of the scale not given here
[17] = Induction of anti-CD3 antibodies-stimulated human CD4+ T cell activation in immunocompetent mouse assessed fold increase in CD25 expression at 180 mg/kg, po administered twice a day; assay type: functional; also: reference of the scale not given here
[18] = Induction of anti-CD3 antibodies-stimulated human CD8+ T cell activation in immunocompetent mouse assessed fold increase in CD25 expression at 180 mg/kg, po administered twice a day; assay type: functional; also: reference of the scale not given here
[19] = Induction of anti-CD3 antibodies-stimulated human CD4+ T cell activation in immunocompetent mouse assessed fold increase in CD25 expression at 90 mg/kg, po administered twice a day; assay type: functional; also: reference of the scale not given here
[20] = Induction of anti-CD3 antibodies-stimulated human CD8+ T cell activation in immunocompetent mouse assessed fold increase in CD25 expression at 90 mg/kg, ip administered thrice a day; assay type: functional; also: reference of the scale not given here

T1 sequence (Q13191 whole entry, the tested form may be a part): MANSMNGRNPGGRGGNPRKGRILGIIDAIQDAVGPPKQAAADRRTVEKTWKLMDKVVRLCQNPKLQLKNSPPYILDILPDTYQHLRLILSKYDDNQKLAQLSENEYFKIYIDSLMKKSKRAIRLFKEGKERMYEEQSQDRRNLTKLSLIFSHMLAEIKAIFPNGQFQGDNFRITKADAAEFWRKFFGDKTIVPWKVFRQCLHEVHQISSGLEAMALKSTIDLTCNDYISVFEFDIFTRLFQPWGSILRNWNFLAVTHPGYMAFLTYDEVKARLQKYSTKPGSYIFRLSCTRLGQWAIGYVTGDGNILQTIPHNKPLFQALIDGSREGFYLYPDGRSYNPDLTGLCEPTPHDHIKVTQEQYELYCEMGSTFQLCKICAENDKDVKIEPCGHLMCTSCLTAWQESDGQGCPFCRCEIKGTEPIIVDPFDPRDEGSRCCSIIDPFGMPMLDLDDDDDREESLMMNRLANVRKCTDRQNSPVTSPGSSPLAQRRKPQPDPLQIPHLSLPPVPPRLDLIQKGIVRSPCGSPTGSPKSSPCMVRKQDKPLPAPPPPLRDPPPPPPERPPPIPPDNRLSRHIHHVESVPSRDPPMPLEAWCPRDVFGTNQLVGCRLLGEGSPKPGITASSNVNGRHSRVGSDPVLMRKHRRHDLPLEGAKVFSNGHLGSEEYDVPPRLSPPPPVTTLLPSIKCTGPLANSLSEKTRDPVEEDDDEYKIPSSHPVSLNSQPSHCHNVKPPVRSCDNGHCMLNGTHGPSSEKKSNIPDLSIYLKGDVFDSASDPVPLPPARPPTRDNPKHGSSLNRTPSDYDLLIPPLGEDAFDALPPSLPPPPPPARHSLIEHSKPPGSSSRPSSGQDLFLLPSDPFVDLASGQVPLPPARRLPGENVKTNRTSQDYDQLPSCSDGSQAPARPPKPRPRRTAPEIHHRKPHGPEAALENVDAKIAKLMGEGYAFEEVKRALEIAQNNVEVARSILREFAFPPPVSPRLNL

Compound	IC50 [1] [µM]	Kd [2] [µM]	fold change (FC) [3]	fold change (FC) [4]	fold change (FC) [7]	fold change (FC) [8]	fold change (FC) [10]	IC50 [12] [nM]	fold change (FC) [13]	also measured
COc1cccc(C(=O)Nc2cccc(C(C)Sc3nncn3C)c2)c1 (stereo not drawn)	> 10	> 10								
Cc1ccc2ccc(C(=O)Nc3cccc(C(C)Sc4nncn4C)c3)nc2n1 (stereo not drawn)	> 10									
C[C@H](Sc1nncn1C)c1cccc(NC(=O)c2ccc3ccccc3n2)c1	≤ 1	≥ 1	1.01	0.601	1.01	1.01	<=0.05	≤ 1000	1.01	fold change (FC) [5]: 1.01; fold change (FC) [6]: 0.601; fold change (FC) [9]: 0.051; fold change (FC) [11]: 1.01
CC(Sc1nncn1C)c1cccc(NC(=O)c2ccc3ccccc3n2)c1 (stereo not drawn)		≥ 1	1.01	<=0.6	1.01	<=1	<=0.05	≤ 1000	<=1	fold change (FC) [5]: 2.51; fold change (FC) [6]: 0.601; fold change (FC) [9]: 0.051; Kd [1]: ≥ 1000 nM; fold change (FC) [11]: 1.01
Cn1cnnc1CC1(c2cccc(NC(=O)c3cc(CN4CC[C@H](F)C4)cc(C4CC4)n3)c2)COC1		< 0.1	>=7.5	>=1.001	>=7.5	1.51	>=0.201	< 100	1.51	fold change (FC) [14]: 1.51; fold change (FC) [15]: 1
C[C@@H](c1cc2c(c(C(F)(F)F)c1)CN(c1cccc(C3(Cc4nncn4C)COC3)c1)C2=O)N1CCC(C)(F)CC1		< 0.1	>=7.5	>=1.001	>=7.5	>=1.76	>=0.201	< 100	>=1.76	fold change (FC) [14]: 1; fold change (FC) [15]: 1
CC(Sc1nncn1C)c1cc(CO)cc(NC(=O)c2ccc3ccccc3n2)c1 (stereo not drawn)	> 10									
CC(Sc1nncn1C)c1cccc(NC(=O)c2ccccn2)c1 (stereo not drawn)	≥ 3	> 10								
CC(Sc1nncn1C)c1cccc(NC(=O)c2cc3ccccc3c(=O)[nH]2)c1 (stereo not drawn)	> 10									
C[C@@H](Cc1nncn1C)c1cccc(N2Cc3c(cccc3C(F)(F)F)C2=O)c1										fold change (FC) [16]: <1; fold change (FC) [14]: <1; fold change (FC) [17]: <1; fold change (FC) [15]: <1; fold change (FC) [18]: <1
CC(Sc1nncn1C)c1cccc(NC(=O)c2ccc3cccnc3c2)c1 (stereo not drawn)	> 10									
Cn1cnnc1[C@H](F)C1(c2cccc(N3Cc4c(cc(CN5CCC(F)CC5)cc4C(F)(F)F)C3=O)c2)COC1		< 0.1	>=7.5	>=1.001	>=7.5	>=1.76	>=0.201	< 100	>=1.76	fold change (FC) [14]: 1.51; fold change (FC) [15]: 1
Cn1cnnc1[C@@H](F)C1(c2cccc(N3Cc4c(cc(CN5CCC(F)CC5)cc4C(F)(F)F)C3=O)c2)COC1		< 0.1	5	>=1.001	>=7.5	1.51	>=0.201	< 100	1.51	fold change (FC) [14]: 2.01; fold change (FC) [15]: 1
CC(Sc1nncn1C)c1cccc(NC(=O)c2ccc3cnccc3c2)c1 (stereo not drawn)	> 10									
C[C@H](Sc1nncn1C)c1ccnc(N)c1	≥ 3	> 10								
Cc1ccc2cc(C(=O)Nc3cccc(C(C)Sc4nncn4C)c3)cnc2c1 (stereo not drawn)	> 10									
Cn1cnnc1CC1(c2cccc(N3Cc4c(cc(CN5CCC(C)(F)CC5)cc4C(F)(F)F)C3=O)c2)COC1		< 0.1	>=7.5	>=1.001	>=7.5	1.31	>=0.201	< 100	1.31	fold change (FC) [16]: <1; fold change (FC) [14]: 1; fold change (FC) [19]: 1; fold change (FC) [17]: 1; fold change (FC) [15]: 1; fold change (FC) [20]: 1; fold change (FC) [18]: <1
Cc1nc2cc(C(C)Sc3nncn3C)cc(N)c2o1 (stereo not drawn)	≥ 3	≥ 3								
CC(Sc1nncn1C)c1cccc(NC(=O)c2ccc3ncccc3c2)c1 (stereo not drawn)	> 10	> 10								
COc1ccc(C(=O)Nc2cccc(C(C)Sc3nncn3C)c2)cc1 (stereo not drawn)	> 10	> 10								
CC(Sc1nncn1C)c1cccc(NC(=O)c2cnc3ccccc3c2)c1 (stereo not drawn)	≥ 3									
CC(Sc1nncn1C)c1cccc(NC(=O)c2ccncn2)c1 (stereo not drawn)	> 10									
CC(Sc1nncn1C)c1cccc(NC(=O)c2ccc3ccncc3c2)c1 (stereo not drawn)	> 10	> 10								
Cn1cnnc1CC1(c2cccc(N3Cc4c(cc(CN5CC[C@H](F)C5)cc4C(F)(F)F)C3=O)c2)COC1			5	>=1.001	>=7.5	1.51	>=0.201	< 100	1.31	fold change (FC) [16]: 1; fold change (FC) [14]: 1; fold change (FC) [19]: 1; fold change (FC) [5]: >=7.5; fold change (FC) [17]: 1; fold change (FC) [6]: >=1.001; fold change (FC) [9]: >=0.201; fold change (FC) [11]: 1.51; fold change (FC) [15]: 1; fold change (FC) [20]: 1; fold change (FC) [18]: 1
COc1ccccc1C(=O)Nc1cccc(C(C)Sc2nncn2C)c1 (stereo not drawn)	> 10	> 10								

From ChEMBL document CHEMBL5050844 (2019)
